From PMC12303054, “First-in-class inhibitors of Nsp15 endoribonuclease of SARS-CoV-2: Modeling, synthesis, and enzymatic assay of thiazolidinedione and rhodanine analogs” (The Journal of Biological Chemistry, 2025)

Key:
Type in all cases: biochemical
Settings in all cases: 100 µM
[1] = target: Lys345Ala SARS-CoV-2 Nsp15 (Severe acute respiratory syndrome coronavirus 2, UniProt P0DTD1, K6796A)
[2] = target: Tyr343Ala SARS-CoV-2 Nsp15 (Severe acute respiratory syndrome coronavirus 2, UniProt P0DTD1, Y6794A)
[3] = target: His250Ala SARS-CoV-2 Nsp15 (Severe acute respiratory syndrome coronavirus 2, UniProt P0DTD1, H6701A)
[4] = target: Ser294Ala SARS-CoV-2 Nsp15 (Severe acute respiratory syndrome coronavirus 2, UniProt P0DTD1, S6745A)

Measured: residual activity retained

O=C1NC(=S)SC1=CC=Cc1ccnc2ccccc12 [KCO237, 5-(3-quinolin-4-yl-allylidene)-2-thioxo-thiazolidine-4-one]
approximately 50%: all assays above
